Columns and labels:
[1] = molecular target: T1, Tie2 receptor tyrosine kinase (Homo sapiens, UniProt Q02763); experiment: In vitro receptor tyrosine kinase inhibition assay (Test (a), ELISA based); format: biochemical; conditions: recombinant human kinase domain lysate, synthetic peptide substrate, ATP 5 micromolar or Km
T1 construct: consist of only the intracellular portion C-terminal portion of the respective receptor, within which is found the kinase domain; made in house; host or cells: baculovirus/Sf21 insect cells, used as cleared lysate
Description: a. In Vitro Receptor Tyrosine Kinase Inhibition Assay
To test for inhibition of Tie2 receptor tyrosine kinase, compounds are evaluated in a non-cell based protein kinase assay by their ability to inhibit the protein kinase enzyme phosphorylation of a tyrosine containing polypeptide substrate in an ELISA based microtitre plate assay. In this particular case, the assay was to determine the IC50, for three different recombinant human tyrosine kinases Tie2, KDR and Flt.
To facilitate production of the tyrosine kinases, recombinant receptor genes were produced using standard molecular biology cloning and mutagenesis techniques. […]
Constitutive kinase activity of these recombinant proteins was determined by their ability to phosphorylate a synthetic peptide (made up of a random co-polymer of Glutamic Acid, Alanine and Tyrosine in the ratio of 6:3:1). […]
The immobilised phospho-peptide product of the reaction was detected by immunological methods. […] Following extensive washing with PBS-T, HRP activity in each well of the plate was measured colorimetrically using 22′-Azino-di-[3-ethylbenzthiazoline sulfonate (6)] diammonium salt crystals ABTS (Sigma P4922—prepared as per manufactures instructions) as a substrate incubated for 30-45 minutes to allow colour development, before 100 ul of 1M H2SO4 was added to stop the reaction. […]

[2] = molecular target: T2, Tie2 receptor (Homo sapiens, UniProt Q02763); experiment: Cellular Tie2 autophosphorylation assay (Test (b)); format: cell-based; conditions: Ang1 ligand stimulated Tie2 autophosphorylation, e.g. EA.hy926/B3 cells, western blot
T2 construct: one can use natural cell lines or primary cells which are known to express the receptor of choice; endogenous in cells; host or cells: EA.hy926/B3 cells (HUVEC named as alternative)
Text: b. Cellular Tie2 Autophosphorylation Assay
This assay is based on measuring the ability of compounds to inhibit autophosphorylation of the Tie2 receptor which normally leads to the production of “activated” receptor that in turn initiates the particular signal transduction pathways associated with the receptor function.
Autophosphorylation can be achieved by a number of means. It is known that expression of recombinant kinase domains in baculoviral systems can lead to the production of phosphorylated and activated receptor. […] In these cases the natural, external cell surface domain of the receptor has been replaced with that of a domain which is known to be readily dimerised via the addition of the appropriate ligand (e.g. TrkA-Tie2/NGF ligand (Marron, M. B., et al., 2000 Journal of Biological Chemistry: 275:39741-39746) or C-fms-Tie-1/CSF-1 ligand (Kontos, C. D., et al., 2002 Molecular and Cellular Biology: 22, 1704-1713). Thus when the chimaeric receptor expressed in a host cell line and the respective ligand is added, this induces autophosphorylation of the chimeric receptor's kinase domain. This approach has the advantage of often allowing a known (and often easily obtained) ligand to be used instead of having to identify and isolate the natural ligand for each receptor of interest. […]

T1 sequence (Q02763 770-1124 limits assumed): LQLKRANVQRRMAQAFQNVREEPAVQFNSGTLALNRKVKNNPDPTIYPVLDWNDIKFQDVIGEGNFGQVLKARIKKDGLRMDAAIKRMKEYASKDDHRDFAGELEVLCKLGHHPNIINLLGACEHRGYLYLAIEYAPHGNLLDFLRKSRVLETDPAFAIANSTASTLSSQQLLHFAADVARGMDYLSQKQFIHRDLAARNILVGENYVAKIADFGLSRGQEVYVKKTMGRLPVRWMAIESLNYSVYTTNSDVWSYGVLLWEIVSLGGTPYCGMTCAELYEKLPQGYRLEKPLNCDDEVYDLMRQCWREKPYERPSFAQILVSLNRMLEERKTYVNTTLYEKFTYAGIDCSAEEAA
T2 sequence (Q02763 23-1124): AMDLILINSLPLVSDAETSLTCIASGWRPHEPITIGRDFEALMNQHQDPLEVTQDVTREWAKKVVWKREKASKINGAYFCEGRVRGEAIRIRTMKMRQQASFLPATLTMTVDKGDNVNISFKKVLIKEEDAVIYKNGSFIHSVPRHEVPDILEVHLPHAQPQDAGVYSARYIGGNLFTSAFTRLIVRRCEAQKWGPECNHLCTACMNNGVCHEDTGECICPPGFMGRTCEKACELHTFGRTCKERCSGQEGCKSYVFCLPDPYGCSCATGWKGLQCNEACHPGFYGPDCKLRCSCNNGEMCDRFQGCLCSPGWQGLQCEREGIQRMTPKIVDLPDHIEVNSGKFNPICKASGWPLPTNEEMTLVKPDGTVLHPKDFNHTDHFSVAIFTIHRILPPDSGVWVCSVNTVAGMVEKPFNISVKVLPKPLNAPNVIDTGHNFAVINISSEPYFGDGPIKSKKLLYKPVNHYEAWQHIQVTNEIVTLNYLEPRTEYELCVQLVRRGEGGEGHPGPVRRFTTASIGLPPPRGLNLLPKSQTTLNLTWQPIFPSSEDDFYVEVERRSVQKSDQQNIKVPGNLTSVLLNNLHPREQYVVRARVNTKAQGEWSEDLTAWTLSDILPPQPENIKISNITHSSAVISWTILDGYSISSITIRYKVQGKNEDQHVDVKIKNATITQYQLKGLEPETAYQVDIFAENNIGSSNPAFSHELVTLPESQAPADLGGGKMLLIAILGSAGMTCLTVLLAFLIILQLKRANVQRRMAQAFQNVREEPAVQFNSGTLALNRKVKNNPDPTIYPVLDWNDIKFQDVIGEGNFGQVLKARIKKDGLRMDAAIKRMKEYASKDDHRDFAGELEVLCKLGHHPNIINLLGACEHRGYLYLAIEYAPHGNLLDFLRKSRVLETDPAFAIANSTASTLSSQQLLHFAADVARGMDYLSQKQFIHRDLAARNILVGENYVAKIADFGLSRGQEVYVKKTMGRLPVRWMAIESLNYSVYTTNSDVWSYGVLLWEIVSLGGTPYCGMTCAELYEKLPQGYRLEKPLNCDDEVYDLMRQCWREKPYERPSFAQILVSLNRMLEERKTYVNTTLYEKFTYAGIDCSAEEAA

IC50 [1]: 16 µM
IC50 [2]: 0.4 µM
SMILES: Cn1cnc(-c2cccc(NC(=O)Nc3cccc(F)c3)c2)c1-c1cc2c(N)ncnc2s1 [Example 1, N-{3-[5-(4-Aminothieno[2,3-d]pyrimidin-6-yl)-1-methyl-1H-imidazol-4-yl]phenyl}-N′-(3-fluorophenol)urea]

— patent US7476677B2, “Substituted thieno- and thiazolo- [2,3-d]pyrimidines and [2,3-c]pyridines as inhibitors of Tie2” (AstraZeneca AB, priority 2004, dated 2009)
